IC50 data for 34 compounds are collected here from patent US20250361210A1, “3,4-DIHYDROQUINOLIN-2(1H)-ONE COMPOUND” (Kissei Pharmaceutical Co., Ltd., priority 2022, published 2025).

pIC50: −log10 of the molar value.

T1 sequence (P16473 21-764): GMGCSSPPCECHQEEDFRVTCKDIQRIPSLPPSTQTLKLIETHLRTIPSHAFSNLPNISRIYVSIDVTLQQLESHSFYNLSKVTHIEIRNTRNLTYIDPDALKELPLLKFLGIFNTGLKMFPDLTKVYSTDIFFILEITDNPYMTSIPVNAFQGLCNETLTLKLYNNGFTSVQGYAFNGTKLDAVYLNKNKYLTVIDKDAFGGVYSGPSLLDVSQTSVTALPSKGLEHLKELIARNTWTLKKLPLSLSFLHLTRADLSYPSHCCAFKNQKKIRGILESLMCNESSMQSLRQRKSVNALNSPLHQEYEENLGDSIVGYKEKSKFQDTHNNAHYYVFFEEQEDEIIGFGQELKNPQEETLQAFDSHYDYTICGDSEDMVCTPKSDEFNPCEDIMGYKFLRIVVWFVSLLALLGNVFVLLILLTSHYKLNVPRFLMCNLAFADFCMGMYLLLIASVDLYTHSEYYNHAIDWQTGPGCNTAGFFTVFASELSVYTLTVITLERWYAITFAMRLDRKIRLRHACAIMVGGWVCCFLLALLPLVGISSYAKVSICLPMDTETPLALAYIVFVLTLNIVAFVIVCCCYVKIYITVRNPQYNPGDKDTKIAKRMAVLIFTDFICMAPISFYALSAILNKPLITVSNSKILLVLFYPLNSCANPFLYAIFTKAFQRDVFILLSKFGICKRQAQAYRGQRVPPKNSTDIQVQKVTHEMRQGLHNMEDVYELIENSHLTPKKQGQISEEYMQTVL

The test has as its target T1, human TSHR (Homo sapiens, UniProt P16473).
T1 construct: expressed in transfected cells
Nature of the test: Antagonist activity using TSH-induced cAMP production in human TSHR-stably expressing CHO cells. The format is cell-based. The note with it: human TSH 50 ng/mL. The method, then: Measurement of Antagonist Activity Using TSH-Induced cAMP Production in Human TSHR-Stably Expressing CHO Cells as an Indicator
The human TSHR gene sequence (reference number NM_000369.2) was inserted into the multicloning site of pcDNA3.1(+). The constructed plasmid vector was introduced into CHO cells using the lipofection method to establish human TSHR-stably expressing CHO cells. The obtained cells were seeded at 5×10^4 cells/well in a 96-well poly-D-lysine-coated plate, and cultured in an F12 culture medium containing 10% FBS, 400 μg/mL of G418, 50 U/mL of penicillin and 50 μg/mL of streptomycin under conditions of 37° C. and 5% CO2 for 1 day. After the culture medium was removed, the cells were washed twice with 100 μL of an assay buffer solution (Hanks' Balanced Salt Solution containing 20 mM HEPES and 1 mM IBMX) per well. 30 μL of a test compound-containing assay buffer solution was added to the well and incubated at room temperature for 15 minutes. Then, 30 μL of an assay buffer solution containing human TSH (final concentration 50 ng/mL, R&D Systems, Inc.) was added, and incubated at 37° C. for 1 hour. The supernatant was removed, a Lysis and Detection Buffer 2 (Cisbio) was added, and the mixture was incubated at room temperature for 1 hour to prepare a cell lysate. According to the instruction manual of a cAMP Gs HiRange kit (Cisbio), the cell lysate, d2-labeled cAMP and anti-cAMP Europium Cryptate labeled antibodies (Cisbio) were reacted in a 384-well white microplate. Then, a fluorescence intensity ratio (measurement wavelength 665 nm/620 nm) was measured using a multi-plate reader (PHERAstar FSX, BMG LABTECH, Japan). The fluorescence intensity ratio of each sample was converted to a cAMP content using a standard curve. The cAMP content was converted as a percentage of the control value to calculate the cAMP production rate. The CAMP production rate was plotted against the test compound concentration using Prism (Graph Pad Software Inc.) to calculate the IC50 value. The IC50 of each test compound is shown in the above tables. In the tables, IC50<0.5 μM: A, 0.5 μM≤IC50<3.0 μM: B, 3.0 μM≤IC50<30 μM: C are shown.
On the technique in general: Changes in cAMP serve as a functional read-out for many G protein-coupled receptors.
On to `Cc1ccc2c(c1Oc1cc(F)ccc1Cl)N(C)C(=O)[C@H](NC(N)=O)C2` [Example 39, ((3R)-8-(2-chloro-5-fluorophenoxy)-1,7-dimethyl-2-oxo-1,2,3,4-tetrahydroquinolin-3-yl)urea], for which the pIC50 was greater than 6.30.

In turn, `CN1C(=O)[C@H](NC(N)=O)Cc2cccc(Oc3ccccc3Cl)c21` [Example 40, ((3R)-8-(2-chlorophenoxy)-1-methyl-2-oxo-1,2,3,4-tetrahydroquinolin-3-yl)urea] gave a pIC50 greater than 6.30.

Compound `CN1C(=O)[C@H](NC(N)=O)Cc2cccc(OC3CCCCC3)c21` [Example 41] had a pIC50 of 5.52 to 6.30. In the case of `CN1C(=O)[C@H](NC(N)=O)Cc2cccc(OC3CCCC3)c21` [Example 42, ((3R)-8-(cyclopentyloxy)-1-methyl-2-oxo-1,2,3,4-tetrahydroquinolin-3-yl)urea] it was 5.52 to 6.30; in that of `CN1C(=O)[C@H](NC(N)=O)Cc2ccc(F)c(Oc3ccccc3C(F)F)c21` [Example 43, ((3R)-8-(2-(difluoromethyl)phenoxy)-7-fluoro-1-methyl-2-oxo-1,2,3,4-tetrahydroquinolin-3-yl)urea], 5.52 to 6.30; in that of `CN1C(=O)[C@H](NC(N)=O)Cc2ccc(F)c(Oc3cc(F)ccc3Cl)c21` [Example 44, ((3R)-8-(2-chloro-5-fluorophenoxy)-7-fluoro-1-methyl-2-oxo-1,2,3,4-tetrahydroquinolin-3-yl)urea], greater than 6.30. In the case of `Cc1ccc2c(c1Oc1ccccc1F)N(C)C(=O)[C@H](NC(N)=O)C2` [Example 45, ((3R)-8-(2-fluorophenoxy)-1,7-dimethyl-2-oxo-1,2,3,4-tetrahydroquinolin-3-yl)urea] it was greater than 6.30; in that of `Cc1ccc2c(c1Oc1cccc(F)c1)N(C)C(=O)[C@H](NC(N)=O)C2` [Example 46, ((3R)-8-(3-fluorophenoxy)-1,7-dimethyl-2-oxo-1,2,3,4-tetrahydroquinolin-3-yl)urea], greater than 6.30. With `Cc1ccccc1Oc1cccc2c1N(C)C(=O)[C@H](NC(N)=O)C2` [Example 47, ((3R)-1-methyl-8-(2-methylphenoxy)-2-oxo-1,2,3,4-tetrahydroquinolin-3-yl)urea] the figure was greater than 6.30; with `Cc1ccc(F)cc1Oc1cccc2c1N(C)C(=O)[C@H](NC(N)=O)C2` [Example 48, ((3R)-8-(5-fluoro-2-methylphenoxy)-1-methyl-2-oxo-1,2,3,4-tetrahydroquinolin-3-yl)urea], greater than 6.30; with `CN1C(=O)[C@H](NC(N)=O)Cc2ccc(C(F)(F)F)c(Oc3ccccc3F)c21` [Example 49, ((3R)-8-(2-fluorophenoxy)-1-methyl-2-oxo-7-(trifluoromethyl)-1,2,3,4-tetrahydroquinolin-3-yl)urea], greater than 6.30. `Cc1ccc2c(c1Oc1cc(F)ccc1F)N(C)C(=O)[C@H](NC(N)=O)C2` [Example 50, ((3R)-8-(2,5-difluorophenoxy)-1,7-dimethyl-2-oxo-1,2,3,4-tetrahydroquinolin-3-yl)urea] had a pIC50 greater than 6.30. For the compound `CN1C(=O)[C@H](NC(N)=O)Cc2cccc(Cc3ccccc3Cl)c21` [Example 51, ((3R)-8-((2-chlorophenyl)methyl)-1-methyl-2-oxo-1,2,3,4-tetrahydroquinolin-3-yl)urea], the pIC50 is greater than 6.30. With `CN1C(=O)[C@H](NC(N)=O)Cc2cccc(Cc3cc(F)ccc3Cl)c21` [Example 52] the figure was greater than 6.30.

For the compound `CN1C(=O)[C@H](NC(N)=O)Cc2cccc(Cc3ccccc3C(F)(F)F)c21` [Example 53, ((3R)-1-methyl-2-oxo-8-((2-(trifluoromethyl)phenyl)methyl)-1,2,3,4-tetrahydroquinolin-3-yl)urea], the pIC50 is greater than 6.30. Take `Cc1ccccc1Cc1cccc2c1N(C)C(=O)[C@H](NC(N)=O)C2` [Example 54, ((3R)-1-methyl-8-((2-methylphenyl)methyl)-2-oxo-1,2,3,4-tetrahydroquinolin-3-yl)urea]: the pIC50 is greater than 6.30. Turning to `CN1C(=O)[C@H](NC(N)=O)Cc2cccc(Cc3ccccc3C(F)F)c21` [Example 55, ((3R)-8-((2-(difluoromethyl)phenyl)methyl)-1-methyl-2-oxo-1,2,3,4-tetrahydroquinolin-3-yl)urea], the pIC50 was greater than 6.30. Compound `CN1C(=O)[C@H](NC(N)=O)Cc2ccc(F)c(Cc3cc(F)ccc3Cl)c21` [Example 56] had a pIC50 greater than 6.30.

Turning to `CN1C(=O)[C@H](NC(N)=O)Cc2ccc(Cl)c(Cc3cc(F)ccc3Cl)c21` [Example 57, ((3R)-7-chloro-8-((2-chloro-5-fluorophenyl)methyl)-1-methyl-2-oxo-1,2,3,4-tetrahydroquinolin-3-yl)urea], the negative-log IC50 (pIC50) is greater than 6.30.

Compound `Cc1ccc2c(c1Cc1ccccc1Cl)N(C)C(=O)[C@H](NC(N)=O)C2` [Example 58, ((3R)-8-((2-chlorophenyl)methyl)-1,7-dimethyl-2-oxo-1,2,3,4-tetrahydroquinolin-3-yl)urea] had a pIC50 greater than 6.30. In the case of `Cc1ccc2c(c1Cc1cc(F)ccc1Cl)N(C)C(=O)[C@H](NC(N)=O)C2` [Example 59, ((3R)-8-((2-chloro-5-fluorophenyl)methyl)-1,7-dimethyl-2-oxo-1,2,3,4-tetrahydroquinolin-3-yl)urea] it was greater than 6.30; in that of `CN1C(=O)[C@H](NC(N)=O)Cc2ccc(F)c(Cc3ccccc3Cl)c21` [Example 60, ((3R)-8-((2-chlorophenyl)methyl)-7-fluoro-1-methyl-2-oxo-1,2,3,4-tetrahydroquinolin-3-yl)urea], greater than 6.30. The compound `CN1C(=O)[C@H](NC(N)=O)Cc2ccc(F)c(Cc3ccccc3C(F)(F)F)c21` [Example 61, ((3R)-7-fluoro-1-methyl-2-oxo-8-((2-(trifluoromethyl)phenyl)methyl)-1,2,3,4-tetrahydroquinolin-3-yl)urea] gave a pIC50 greater than 6.30. With `CN1C(=O)[C@H](NC(N)=O)Cc2ccc(Cl)c(Cc3ccccc3Cl)c21` [Example 62, ((3R)-7-chloro-8-((2-chlorophenyl)methyl)-1-methyl-2-oxo-1,2,3,4-tetrahydroquinolin-3-yl)urea] the figure was greater than 6.30; with `Cc1ccccc1Cc1c(F)ccc2c1N(C)C(=O)[C@H](NC(N)=O)C2` [Example 63, ((3R)-7-fluoro-1-methyl-8-((2-methylphenyl)methyl)-2-oxo-1,2,3,4-tetrahydroquinolin-3-yl)urea], greater than 6.30. In the case of `CN1C(=O)[C@H](NC(N)=O)Cc2ccc(Cl)c(Cc3ccccc3F)c21` [Example 64, ((3R)-7-chloro-8-((2-fluorophenyl)methyl)-1-methyl-2-oxo-1,2,3,4-tetrahydroquinolin-3-yl)urea] it was 5.52 to 6.30; in that of `CN1C(=O)[C@H](NC(N)=O)Cc2ccc(Cl)c(Cc3cccc(F)c3)c21` [Example 65], 5.52 to 6.30; in that of `Cc1ccc2c(c1Cc1cccc(F)c1)N(C)C(=O)[C@H](NC(N)=O)C2` [Example 67], 4.52 to 5.52. `Cc1ccc(F)cc1Cc1cccc2c1N(C)C(=O)[C@H](NC(N)=O)C2` [Example 68, ((3R)-8-((5-fluoro-2-methylphenyl)methyl)-1-methyl-2-oxo-1,2,3,4-tetrahydroquinolin-3-yl)urea] showed a pIC50 greater than 6.30. In turn, `CN1C(=O)[C@H](NC(N)=O)Cc2ccc(Cl)c(Oc3cc(F)ccc3F)c21` [Example 69, ((3R)-7-chloro-8-(2,5-difluorophenoxy)-1-methyl-2-oxo-1,2,3,4-tetrahydroquinolin-3-yl)urea] showed a pIC50 greater than 6.30. In the case of `Cc1ccc2c(c1Oc1cc(F)ccc1C(F)F)N(C)C(=O)[C@H](NC(N)=O)C2` [Example 70, ((3R)-8-(2-(difluoromethyl)-5-fluorophenoxy)-1,7-dimethyl-2-oxo-1,2,3,4-tetrahydroquinolin-3-yl)urea] it was greater than 6.30. As for `CN1C(=O)[C@H](NC(N)=O)Cc2ccc(CO)c(Oc3cc(F)ccc3Cl)c21` [Example 71, ((3R)-8-(2-chloro-5-fluorophenoxy)-7-(hydroxymethyl)-1-methyl-2-oxo-1,2,3,4-tetrahydroquinolin-3-yl)urea], the pIC50 is greater than 6.30. With `CN1C(=O)[C@H](NC(N)=O)Cc2ccc(C(F)F)c(Oc3cc(F)ccc3Cl)c21` [Example 72, ((3R)-8-(2-chloro-5-fluorophenoxy)-7-(difluoromethyl)-1-methyl-2-oxo-1,2,3,4-tetrahydroquinolin-3-yl)urea] the figure was greater than 6.30. In the case of `CN1C(=O)[C@H](NC(N)=O)Cc2ccc(CF)c(Oc3cc(F)ccc3Cl)c21` [Example 73, ((3R)-8-(2-chloro-5-fluorophenoxy)-7-(fluoromethyl)-1-methyl-2-oxo-1,2,3,4-tetrahydroquinolin-3-yl)urea] it was greater than 6.30.

Usually pIC50 stands for −log10 of the IC50, conventionally taken in molar units. A low value points to a large IC50.
